Experimental data taken from patent publication US20050025839A1, “Formulation approach to enhance transporter-mediated drug uptake” (priority 2003, published 2005).

How the values were obtained:
hASBT = biological target: T1, hASBT (Homo sapiens, UniProt Q12908); assay: Sodium-enhanced uptake into COS-hASBT cells (FIG. 1); type: cell-based; details: with vs without sodium
T1 construct: expressed in transfected cells; host or cells: COS cells (COS-hASBT)
T1 sequence (Q12908 1-348): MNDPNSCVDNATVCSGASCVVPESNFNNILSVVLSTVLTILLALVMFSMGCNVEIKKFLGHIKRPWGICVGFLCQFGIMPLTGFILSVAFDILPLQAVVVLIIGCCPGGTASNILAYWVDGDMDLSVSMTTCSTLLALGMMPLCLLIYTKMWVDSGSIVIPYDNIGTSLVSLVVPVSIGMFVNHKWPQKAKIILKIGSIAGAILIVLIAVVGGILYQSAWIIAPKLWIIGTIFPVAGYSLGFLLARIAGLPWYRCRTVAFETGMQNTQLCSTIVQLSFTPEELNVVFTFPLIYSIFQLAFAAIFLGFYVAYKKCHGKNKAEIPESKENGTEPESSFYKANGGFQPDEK
Text: FIG. 1 illustrates how this invention provides for improved uptake of active agent, and specifically the impact of sodium on the uptake of an acyclovir prodrug that utilizes the hASBT transporter, which is a sodium-dependent transporter. […] COS-hASBT cells express hASBT. Acyclovir valylchenodeoxycholate is a prodrug of acyclovir, where acyclovir valylchenodeoxycholate is a substrate for hASBT. Uptake from acyclovir valylchenodeoxycholate prodrug and uptake from acyclovir are shown as closed bar and open bar, respectively. […] Error bars represent SEM's.

[1] = prodrug vs acyclovir, refs (9,10); cited from earlier work

Row | Effect of sodium on uptake into COS-hASBT cells (hASBT) | SMILES | in vivo oral acyclovir bioavailability [1]
1 | did not enhance | Nc1nc2c(ncn2COCCO)c(=O)[nH]1 [acyclovir, reference compound] | –
2 | enhanced by sodium | CC(C)[C@H](NC(=O)CC[C@@H](C)[C@H]1CC[C@H]2[C@@H]3[C@H](O)C[C@@H]4C[C@H](O)CC[C@]4(C)[C@H]3CC[C@]12C)C(=O)OCCOCn1cnc2c(=O)[nH]c(N)nc21 [acyclovir valylchenodeoxycholate] | enhance in vivo oral acyclovir bioavailability
